Results reported in patent US4104383A, “Derivatives of phenylpropenylamine” (C M Industries, priority 1973, dated 1978).
Converted amounts (≈) assume the structure as drawn. Where two headings read alike, the source gives them in different places.

Experiments:
mouse [1] = assay: Activity test (spontaneous motility, photoelectric cell cage); assay type: in vivo; settings: read-out: Activity, median effective dose
Description: (Boissier J. R. and Simon P. "Archives Internationales de Pharmacodynamie",1965, 158, 212).
A mouse was placed in a Plexiglass cage crossed by a plurality of beams of light acting on photoelectric cells. When the mouse moved and thereby interrupted one of the beams, this caused an electrical pulse which was registered on a counter. The measurements were carried out on batches of six treated animals and six control animals for a period of 20 minutes.
(§1) The results obtained from the tests described above are summarized in Table II; the figures given in this Table show the value of the median effective dose for each test. The method of administration is indicated by "I.V." for intravenous administration, "I.P." for intraperitoneal administration and "P.O." for oral administration.

central nervous system [2] = assay: Traction test; assay type: in vivo; settings: mouse, read-out: Traction, median effective dose
From the text: (Courvoisier S., Ducrot R. and Julou L. "Psychotropic Drugs", Elsevier, 1957, p.373)
In this test, a mouse was hung by its front legs on a stretched wire. The animal will normally recover by itself, by gripping with its rear legs within 5 seconds.
as §1

central nervous system [3] = assay: Balancing test (rotating shaft); assay type: in vivo; settings: mouse, read-out: Balancing, median effective dose
Description: (Boissier J. R., Dumont C. and Ratouis R. "Therapie", 1960, 15, 1170)
In this test, mice were placed for 1 minute on a horizontal wooden shaft which rotated steadily at 12 r.p.m. The mice will normally counteract this movement using positional and balancing reflexes; if, however, the central nervous system is affected, these reflexes are disturbed and a certain number of animals fall off.
as §1

mouse [4] = assay: Exploration test (plank with holes, anxiolytic activity); assay type: in vivo; settings: read-out: Exploration, median effective dose
Description: (Boissier J. R. and Simon P. "Archives Internationales de Pharmacodynamie",1964, 147, 372).
This test, using a plank with holes in it, makes it possible to measure objectively the anxiolytic activity of a compound by noting the decrease in the number of holes explored within a given time by a treated mouse in comparison with a control mouse. The animals are used in batches of 10 and are allowed 5 minutes for exploration.
as §1

mouse [5] = assay: Reserpine test (reserpine-induced depression); assay type: in vivo; settings: reserpine 5 mg/kg subcutaneously, read-out: Reserpine, median effective dose
Description: (Rubin B., Malone M. H., Waugh M. H. and Burke J. C., "Journal of Pharmacology and Experimental Therapeutics", 1957, 120, 125)
Reserpine, administered subcutaneously to a mouse in a dose of 5 mg/kg body weight, causes symptoms of severe depression, with absolute fixity, ptosis of the eyelids, hypothermia and catatonia; the simultaneous administration of a substance having anti-depressive properties leads to the progressive total or partial disappearance of this depressed state.
as §1

dorsal hippocampus = assay: Electroencephalographic study, electrical stimulation of the dorsal hippocampus; assay type: in vivo, rabbit; settings: conscious rabbits, intravenous; 6 volts, 30 cycles per second, 5 seconds
From the text: Electroencephalographic study
(Schmitt H. and Schmitt H., "Therapie", 1966, 3, 675-684)
Electrical stimulation of the dorsal hippocampus (6 volts; 30 cycles per second; 5 seconds, extent: 1.5 milliseconds) causes electrical discharges in the rabbit which continue for several seconds after cessation of electrical stimulation. These discharges last from 15 to 19 seconds in a normal animal. When the rabbit is under the influence of an antidepressant drug, these discharges last much longer. The experiment was carried out on batches of six conscious rabbits implanted by the technique of Monnier M. and Gangloff H. ("Atlas of Stereotaxic brain research on the conscious rabbit", Elsevier 1961), the products being administered intraveneously. The discharges were increased by 60% when the rabbits were treated with compound 933 CB and by 20 % when the rabbits were treated with compound 994 CB.

isolated rat duodenum = assay: Antispasmodic activity, barium chloride-induced spasms of isolated rat duodenum; settings: tyrode bath 37° C, barium chloride 100 μg/liter, compound added 3 minutes before, read-out: 50% effective concentration
Description: The antispasmodic activity of the compounds of the invention was also studied on the isolated rat duodenum, kept alive in an aerated tyrode bath at 37° C. Spasms were induced by the administration of barium chloride in an amount of 100 μg/liter. The compounds of the invention were added, at various concentrations, to the tyrode bath 3 minutes before the addition of the spasmogenic agent and the concentration determined of each which reduced by 50% the extent of the contraction caused by this agent.

Toxicity, LD50 in mice = settings: mouse, in vivo
From the text: The toxicity of the compounds of the invention is generally low, as may be seen from Table IV, which gives the LD50 in mg/kg in mice for some of the compounds of the invention.

[6] = test system: severely depressed hospital patients; assay: Clinical evaluation in severely depressed hospital patients; assay type: in vivo, human
Description: A clinical evaluation of 933 CB was carried out using a sample of […] severely depressed hospital patients who were considering suicide or in some cases had attempted it. The sample contained 13 cases of nervous depression, 10 cases of reactional depression, seven cases of psychotic depression and three cases of severe melancholia. A clear favourable action on the depressive […] occurred in 21 of the patients. Several cases where a favourable response was noted had previously been treated with tricyclic antidepressants without success. […] The daily dose of the compound administered to each patient varied from 20 to 200 mg, the most favourable results being obtained with a dose of 40 to 60 mg.

[7] = test system: adynamic and depressive states; assay: Clinical use in adynamic and depressive states; assay type: in vivo; settings: 2 to 10 compressed tablets of 100 mg daily or 1 to 5 injectible ampoules of 100 mg
Description: The compounds of the invention have been successfully used clinically to treat adynamic and depressive states, such as melancholia, reactive depressions and manic-depressive psychosis.
The compounds of the present invention are preferably formulated for oral administration or for injection. The compounds of the invention are also suitable for rectal administration. For oral administration, compressed tablets, each containing from 20 to 500 mg of active ingredient are recommended and for injection, ampoules each containing from 10 to 500 mg of active ingredient are recommended.

[8] = po, orally, read-out: LD50 orally
[9] = 30 severely depressed hospital patients, 20 to 200 mg daily

SMILES | ED50 (mouse [1]; ip, I.P.) [mg/kg] | ED50 (mouse [1]; po, P.O.) [mg/kg] | ED50 (central nervous system [2]; ip, I.P.) [mg/kg] | ED50 (central nervous system [2]; po, P.O.) [mg/kg] | ED50 (central nervous system [3]; ip, I.P.) [mg/kg] | ED50 (central nervous system [3]; po, P.O.) [mg/kg] | ED50 (mouse [4]; ip, I.P.) [mg/kg] | ED50 (mouse [4]; po, P.O.) [mg/kg] | ED50 (mouse [5]; ip, I.P.) [mg/kg] | ED50 (mouse [5]; po, P.O.) [mg/kg] | Increase of hippocampal discharges (dorsal hippocampus) [%] | EC50 (isolated rat duodenum) [ng/mL] | LD50 (Toxicity, LD50 in mice; ip, I.P., read-out: LD50 I.P.) [mg/kg] | LD50 (Toxicity, LD50 in mice; [8]) [mg/kg] | patients with a clear favourable action on the depressive thymine [6, 9] [patients] | patients with improvement noted in less than a week [6, 9] [patients] | rapidity of action (in words) ([6]; depressed patients) | results on administration (in words) [7]
CCN(CC)CC=Cc1ccc(C2CCCCC2)c(Cl)c1 [933 CB, 3-chloro-4-cyclohexyl-1-(3-diethylamino-propen-1-yl)-benzene] | 25 | 100 | 50 | 100 | 30 | 50 | 25 | 25 | 75 | 100 | 60 | 0.6 to 1 (≈ 1.96 to 3.27 nM) | 125 | > 1080 | 21 | 13 | The action was rapid | Good results were obtained
CCN(CC)CCCc1ccc(C2CCCCC2)c(Cl)c1 [934 CB, 3-Chloro-4-cyclohexyl-1-(3-diethylamino-propyl)-benzene] | 30 |  |  |  | 12.5 |  | 20 |  | 50 |  |  | 0.6 (≈ 1.95 nM) | 125 to 250 | > 750 |  |  |  | 
CCN(CC)CC=Cc1ccc(-c2ccccc2)cc1 [994 CB, 4-(3-diethylamino-propen-1-yl)-biphenyl] | 100 |  | 100 |  | 50 |  | 50 | 50 | 50 | 50 | 20 | 3 (≈ 11.3 nM) |  |  |  |  |  | 
CCN(CC)CCCc1ccc(-c2ccccc2)cc1 [31001 CB, 4-(3-diethylamino-propyl)-biphenyl] | 50 |  | 100 |  | 100 |  |  |  |  |  |  | 1 (≈ 3.74 nM) |  |  |  |  |  | 
CN(C)CC=Cc1ccc(C2CCCCC2)c(Cl)c1 [31004 CB, 3-chloro-4-cyclohexyl-1-(3-dimethylamino-propen-1-yl)-benzene] | 12.5 |  | > 100 |  | 100 |  | 60 |  |  |  |  | 1 to 3 (≈ 3.6 to 10.8 nM) | 125 | > 750 |  |  |  | 
CN(C)CCCc1ccc(C2CCCCC2)c(Cl)c1 [31012 CB, 3-Chloro-4-cyclohexyl-1-(3-dimethylamino-propyl)-benzene] | 50 |  | 100 |  | 100 |  | 50 |  |  |  |  |  | 250 to 300 | > 750 |  |  |  | 
Clc1cc(C=CCN2CCOCC2)ccc1C1CCCCC1 [31013 CB, 3-chloro-4-cyclohexyl-1-(3-morpholino-propen-1-yl)-benzene] | 50 |  |  |  |  |  | 50 |  |  |  |  |  | 500 | > 750 |  |  |  | 
Clc1cc(C=CCN2CCCC2)ccc1C1CCCCC1 [31015 CB, 3-Chloro-4-cyclohexyl-1-(3-pyrrolidino-propen-1-yl)-benzene] | 20 |  | 50 |  | 50 |  | 25 |  | 50 |  |  | 1 to 3 (≈ 3.29 to 9.87 nM) | 62.5 | > 750 |  |  |  | 
Clc1cc(CCCN2CCCC2)ccc1C1CCCCC1 [31016 CB, 3-Chloro-4-cyclohexyl-1-(3-pyrrolidino-propyl)-benzene] | 12.5 |  |  |  |  |  | 20 |  | 50 |  |  |  | 50 to 100 | > 750 |  |  |  | 
CCN(CC)CC=Cc1ccc(C2CCCCC2)cc1 [31023 CB, 4-cyclohexyl-1-(3-diethylamino-propen-1-yl)-benzene] | 25 |  | 25 |  | 30 |  |  |  |  |  |  |  |  |  |  |  |  | 
CCN(CC)CC=Cc1ccc(C2CCCCC2)c(F)c1 [Compound 31030, 3-fluoro-4-cyclohexyl-1-(3-diethylamino-propen-1-yl)-benzene] | 100 |  | 50 |  | 25 |  | ≥ 50 |  |  |  |  |  |  |  |  |  |  | 
